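Exposure lasted 48 hours, with cells grown in 96-well plates and compounds tested at five concentrations. The concentration for full growth arrest is given as TGI.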 *1 amine or outer side, *2 acyl side, *3 side chain or, on linkers, in order; H or OH if unused. Where a SMILES comes first, the peptide text is derived from it. [ ]: non-standard residue; d: D form. The star is where a group is joined. X31 = CC(=O)N(C)SCC(N[*:1])C(=O)[*:2]; X47 = CC(=O)N(C)SCC(N*)/C(O)=N\O; Cbz = O=C(OCc1ccccc1)*; Bn = c1ccc(C*)cc1; For = O=C*
Legend:
Assay in all cases: NCI anticancer screen, dose series, 48 h
[1] = test system: MDA-MB-231 breast
[2] = test system: NCI/ADR-RES ovarian
[3] = test system: SK-MEL-5 melanoma
[4] = test system: SK-MEL-2 melanoma
[5] = test system: SF-295 CNS
[6] = test system: SNB-75 CNS
[7] = test system: LOX IMVI melanoma
[8] = test system: BT-549 breast
[9] = test system: EKVX NSCLC
[10] = test system: OVCAR-4 ovarian
[11] = test system: MALME-3M melanoma
[12] = test system: NCI-H23 lung
[13] = test system: UACC-257 melanoma
[14] = test system: HCT-15 colon
[15] = test system: HOP-62 NSCLC
[16] = test system: CAKI-1 renal
[17] = test system: SNB-19 CNS
[18] = test system: ACHN renal
[19] = test system: K-562 leukemia
[20] = test system: SF-268 CNS

O=C(Nc1nnc(-c2ccccc2)o1)C(SC(=S)N1CCCCC1)c1ccccc1 (stereo unspecified)
TGI [1]: > 100 µM
TGI [2]: 33.2 µM
TGI [3]: 28.2 µM
TGI [4]: 51.1 µM
TGI [5]: > 100 µM
TGI [6]: > 100 µM
TGI [7]: 18 µM
TGI [8]: 39.3 µM
TGI [9]: 64.2 µM
TGI [10]: > 100 µM
TGI [11]: > 100 µM
TGI [12]: 30.7 µM
TGI [13]: > 100 µM
TGI [14]: 29.1 µM
TGI [15]: 92.1 µM
TGI [16]: 77.8 µM
TGI [17]: > 100 µM
TGI [18]: 75.7 µM
TGI [19]: > 100 µM

CN(C)C(Cc1cnc[nH]1)C(=O)N1CCCC1C(N)=O (stereo unspecified)
TGI [1]: > 100 µM
TGI [2]: > 100 µM
TGI [3]: > 100 µM
TGI [5]: > 100 µM
TGI [6]: > 100 µM
TGI [7]: > 100 µM
TGI [8]: > 100 µM
TGI [9]: > 100 µM
TGI [10]: > 100 µM
TGI [11]: > 100 µM
TGI [12]: > 100 µM
TGI [14]: > 100 µM
TGI [15]: > 100 µM
TGI [16]: > 100 µM
TGI [17]: > 100 µM
TGI [18]: > 100 µM
TGI [19]: > 100 µM
TGI [20]: > 100 µM

CCOC(=O)C1(C(N)=O)C(=O)c2ccncc2C1=O (stereo unspecified)
TGI [1]: > 100 µM
TGI [2]: > 100 µM
TGI [3]: > 100 µM
TGI [4]: > 100 µM
TGI [5]: > 100 µM
TGI [6]: > 100 µM
TGI [7]: > 100 µM
TGI [8]: > 100 µM
TGI [9]: > 100 µM
TGI [10]: > 100 µM
TGI [11]: > 100 µM
TGI [12]: > 100 µM
TGI [13]: > 100 µM
TGI [14]: > 100 µM
TGI [16]: > 100 µM
TGI [17]: > 100 µM
TGI [18]: > 100 µM
TGI [19]: > 100 µM
TGI [20]: > 100 µM

O=c1c2cc(-c3ccccc3)sc2nc2n1N=C(c1ccccc1)CS2
TGI [1]: > 100 µM
TGI [2]: 57.5 µM
TGI [3]: 79.3 µM
TGI [5]: 44.2 µM
TGI [6]: 89.1 µM
TGI [7]: > 100 µM
TGI [8]: 46.7 µM
TGI [9]: > 100 µM
TGI [10]: 61.4 µM
TGI [11]: > 100 µM
TGI [12]: > 100 µM
TGI [13]: 91.5 µM
TGI [14]: > 100 µM
TGI [15]: 23 µM
TGI [16]: 34.3 µM
TGI [18]: 32.5 µM
TGI [19]: > 100 µM
TGI [20]: > 100 µM

COc1ccccc1/C=C/C1=NN(c2cccc(S(=O)(=O)O)c2)C2(C1)SCC(=O)N2c1nc2ccccc2s1 (stereo unspecified)
TGI [1]: > 100 µM
TGI [2]: > 100 µM
TGI [3]: > 100 µM
TGI [4]: > 100 µM
TGI [6]: > 100 µM
TGI [7]: > 100 µM
TGI [8]: > 100 µM
TGI [9]: > 100 µM
TGI [10]: > 100 µM
TGI [11]: > 100 µM
TGI [12]: > 100 µM
TGI [13]: > 100 µM
TGI [14]: > 100 µM
TGI [16]: > 100 µM
TGI [17]: > 100 µM
TGI [18]: > 100 µM
TGI [19]: > 100 µM
TGI [20]: > 100 µM

CCCCCCCC1C(C)c2c([nH]c3ccccc23)C2C(=O)N(c3ccc(OC)cc3)C(=O)C21 (stereo unspecified)
TGI [1]: > 7.84 µM
TGI [2]: 3.02 µM
TGI [3]: > 10 µM
TGI [4]: > 10 µM
TGI [5]: > 6.64 µM
TGI [6]: 3.91 µM
TGI [8]: 6.56 µM
TGI [9]: > 10 µM
TGI [10]: 5.8 µM
TGI [11]: > 10 µM
TGI [12]: 6.99 µM
TGI [13]: 7.65 µM
TGI [14]: > 10 µM
TGI [15]: > 7.78 µM
TGI [16]: > 8.37 µM
TGI [17]: 9.92 µM
TGI [18]: 5.74 µM
TGI [19]: > 6.39 µM
TGI [20]: > 10 µM

COc1cc2c(/C=C3/C(=O)N(C)c4ccccc43)c(Cl)[nH]c2cc1C
TGI [1]: 3.68 µM
TGI [2]: 2.67 µM
TGI [3]: 7.41 µM
TGI [4]: 5.31 µM
TGI [5]: 3.44 µM
TGI [6]: 46.2 µM
TGI [7]: 11.4 µM
TGI [8]: 3.64 µM
TGI [9]: > 47.2 µM
TGI [10]: 4.14 µM
TGI [12]: 1.55 µM
TGI [13]: 97.6 µM
TGI [14]: 6.34 µM
TGI [15]: 3.56 µM
TGI [16]: > 52.8 µM
TGI [17]: 14.2 µM
TGI [18]: > 55.9 µM
TGI [20]: 3.09 µM

COc1ccc(/C=C2\CCC(C)C3=C(c4ccc(OC)c(OC)c4)C(C#N)=C(N)OC32)cc1OC (stereo unspecified)
TGI [1]: 17.5 µM
TGI [2]: 39.4 µM
TGI [3]: 4.66 µM
TGI [4]: 5.63 µM
TGI [5]: 75.9 µM
TGI [6]: 8.63 µM
TGI [7]: 10.9 µM
TGI [8]: 24.5 µM
TGI [9]: 8.12 µM
TGI [11]: 32.2 µM
TGI [12]: 13.6 µM
TGI [13]: 37 µM
TGI [14]: 38 µM
TGI [16]: > 100 µM
TGI [17]: > 100 µM
TGI [18]: > 100 µM
TGI [19]: > 100 µM
TGI [20]: > 100 µM

CCC1=NC(N/N=C/c2ccco2)=N/C1=C\c1ccccc1O
TGI [1]: > 100 µM
TGI [2]: > 100 µM
TGI [3]: > 100 µM
TGI [4]: 89.4 µM
TGI [5]: > 100 µM
TGI [7]: > 100 µM
TGI [8]: > 100 µM
TGI [9]: > 100 µM
TGI [10]: 27.8 µM
TGI [11]: 98.9 µM
TGI [12]: > 100 µM
TGI [13]: > 100 µM
TGI [14]: 42.7 µM
TGI [15]: > 100 µM
TGI [16]: > 100 µM
TGI [17]: > 100 µM
TGI [18]: > 100 µM
TGI [19]: > 100 µM
TGI [20]: > 100 µM

CCOC(=O)c1ccc(Nc2cnc3cc(C(F)(F)F)ccc3n2)cc1
TGI [1]: > 100 µM
TGI [2]: > 100 µM
TGI [3]: > 100 µM
TGI [5]: > 100 µM
TGI [6]: > 100 µM
TGI [7]: > 100 µM
TGI [8]: > 100 µM
TGI [9]: > 100 µM
TGI [10]: > 100 µM
TGI [11]: > 100 µM
TGI [12]: > 100 µM
TGI [13]: > 100 µM
TGI [14]: > 100 µM
TGI [15]: > 100 µM
TGI [16]: > 100 µM
TGI [18]: > 100 µM
TGI [19]: > 100 µM
TGI [20]: > 100 µM

CC(=O)N(C)SCC(NC(=O)C(Cc1ccccc1)NC(=O)OCc1ccccc1)C(=O)NC(Cc1ccccc1)C(=O)NC(Cc1cn(C=O)c2ccccc12)C(=O)NC(CCCCNC(=O)OCc1ccccc1)C(=O)NC(C(=O)NC(CSN(C)C(C)=O)/C(O)=N\O)C(C)OCc1ccccc1 (stereo unspecified) (Cbz-F[X31]FW(For)K(Cbz)T(Bn)-X47; configuration not given here)
TGI [1]: > 100 µM
TGI [2]: > 100 µM
TGI [3]: > 100 µM
TGI [4]: > 100 µM
TGI [5]: > 100 µM
TGI [6]: > 100 µM
TGI [7]: > 100 µM
TGI [8]: > 100 µM
TGI [9]: > 100 µM
TGI [10]: > 100 µM
TGI [11]: > 100 µM
TGI [12]: > 100 µM
TGI [13]: > 100 µM
TGI [14]: > 100 µM
TGI [15]: > 100 µM
TGI [17]: > 100 µM
TGI [18]: > 100 µM
TGI [19]: > 100 µM
TGI [20]: > 100 µM

C=CCn1c(=O)c2ccccc2[n+]2c(C)c(C(=O)OCC)sc12
TGI [1]: > 100 µM
TGI [2]: > 100 µM
TGI [3]: > 100 µM
TGI [4]: > 100 µM
TGI [5]: > 100 µM
TGI [7]: > 100 µM
TGI [8]: > 100 µM
TGI [9]: > 100 µM
TGI [10]: > 100 µM
TGI [12]: > 100 µM
TGI [13]: > 100 µM
TGI [14]: > 100 µM
TGI [15]: > 100 µM
TGI [16]: > 100 µM
TGI [17]: > 100 µM
TGI [18]: > 100 µM
TGI [19]: > 100 µM
TGI [20]: > 100 µM

Source: PubChem BioAssay (NCI)
